Data published in PubChem BioAssay AID2060604 (Molecular Pharmacology Branch, DTP, NCI, 2025).

System: 379773-124-R-J2-PDC complex spheroids, viability % test/control
Test: Anticancer human tumor 379773-124-R-J2-PDC patient-derived endometrial carcinoma cell line growth inhibition [CLK]
Settings: for IC50: curve of first compound; for viability, T/C: stronger effect = lower value
Procedure, shortened: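 Patient-derived tumor cells grown as complex spheroids with HUVEC endothelial cells and mesenchymal stem cells, treated with drug combinations. Concentrations descend in half-log steps from near clinical Cmax, or from 10 microM if Cmax unknown.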

[1] = second compound 0.0316 µM, first compound 0.0316 µM
[2] = second compound 0.0316 µM, first compound 0.1 µM
[3] = second compound 0.0316 µM, first compound 0.316 µM
[4] = second compound 0.0316 µM, first compound 1 µM
[5] = second compound 0.0316 µM, first compound 3.16 µM
[6] = second compound 0.0316 µM, first compound 10 µM
[7] = second compound 0.1 µM, first compound 0.0316 µM
[8] = second compound 0.1 µM, first compound 0.1 µM
[9] = second compound 0.1 µM, first compound 0.316 µM
[10] = second compound 0.1 µM, first compound 1 µM
[11] = second compound 0.1 µM, first compound 3.16 µM
[12] = second compound 0.1 µM, first compound 10 µM
[13] = second compound 0.316 µM, first compound 0.0316 µM
[14] = second compound 0.316 µM, first compound 0.1 µM
[15] = second compound 0.316 µM, first compound 0.316 µM
[16] = second compound 0.316 µM, first compound 1 µM
[17] = second compound 0.316 µM, first compound 3.16 µM
[18] = second compound 0.316 µM, first compound 10 µM
[19] = second compound 1 µM, first compound 0.0316 µM
[20] = second compound 1 µM, first compound 0.1 µM
[21] = second compound 1 µM, first compound 0.316 µM
[22] = second compound 1 µM, first compound 1 µM
[23] = second compound 1 µM, first compound 3.16 µM
[24] = second compound 1 µM, first compound 10 µM
[25] = second compound 3.16 µM, first compound 0.0316 µM
[26] = second compound 3.16 µM, first compound 0.1 µM
[27] = second compound 3.16 µM, first compound 0.316 µM
[28] = second compound 3.16 µM, first compound 1 µM
[29] = second compound 3.16 µM, first compound 3.16 µM
[30] = second compound 3.16 µM, first compound 10 µM
[31] = second compound 10 µM, first compound 0.0316 µM
[32] = second compound 10 µM, first compound 0.1 µM
[33] = second compound 10 µM, first compound 0.316 µM
[34] = second compound 10 µM, first compound 1 µM
[35] = second compound 10 µM, first compound 3.16 µM
[36] = second compound 10 µM, first compound 10 µM
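Note: compound exposure lasted seven days before the viability readout.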
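Throughout, for viability, T/C: 100% = DMSO vehicle control wells.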

For `C=C(F)C(=O)N1CCN(c2nc(OCC3CCCN3C)nc3c2CCN(c2cccc4cccc(Cl)c24)C3)CC1CC#N` (stereo not drawn) + CNC(=O)c1ccc(Nc2nc(OC3CCCC3)c3c(-c4ccc5nc(C)oc5c4)c[nH]c3n2)c(OC)c1, the IC50 (second compound 0.0316 µM) was 2020 nM, the IC50 (second compound 0.1 µM) was under 31.6 nM and the IC50 (second compound 0.316 µM) was under 31.6 nM. The IC50 (second compound 1 µM) was under 31.6 nM, the IC50 (second compound 3.16 µM) was under 31.6 nM and the IC50 (second compound 10 µM) was under 31.6 nM. For the same compound, the viability, T/C [1] was 69.1%, the viability, T/C [2] was 63.1% and the viability, T/C [3] was 72.3%. The viability, T/C [4] was 78%, the viability, T/C [5] was 36.7% and the viability, T/C [6] was 0.16%. It also gave a viability, T/C [7] of 35.7%, a viability, T/C [8] of 42.1% and a viability, T/C [9] of 42.7%. For the same compound, the viability, T/C [10] was 39.8%, the viability, T/C [11] was 26.7% and the viability, T/C [12] was 0.13%. It also gave a viability, T/C [13] of 37.1%, a viability, T/C [14] of 41.4% and a viability, T/C [15] of 32.4%. It also gave a viability, T/C [16] of 39%, a viability, T/C [17] of 16.2% and a viability, T/C [18] of 0.17%. It also gave a viability, T/C [19] of 25.5%, a viability, T/C [20] of 31.4% and a viability, T/C [21] of 34.9%. It also gave a viability, T/C [22] of 34.5%, a viability, T/C [23] of 10.4% and a viability, T/C [24] of 0.13%. For the same compound, the viability, T/C [25] was 30.2%, the viability, T/C [26] was 35.3% and the viability, T/C [27] was 35.7%. The viability, T/C [28] was 35%, the viability, T/C [29] was 14.3% and the viability, T/C [30] was 2.42%. The viability, T/C [31] was 31.6%, the viability, T/C [32] was 32.9% and the viability, T/C [33] was 27.7%. For the same compound, the viability, T/C [34] was 27.3%, the viability, T/C [35] was 9.27% and the viability, T/C [36] was 0.53%.
For `C=CC(=O)N1CCN(c2nc(=O)n(-c3c(C)ccnc3C(C)C)c3nc(-c4c(O)cccc4F)c(F)cc23)C(C)C1` (stereo not drawn) + CNC(=O)c1ccc(Nc2nc(OC3CCCC3)c3c(-c4ccc5nc(C)oc5c4)c[nH]c3n2)c(OC)c1, the IC50 (second compound 0.0316 µM) was over 10000 nM, the IC50 (second compound 0.1 µM) was under 31.6 nM and the IC50 (second compound 0.316 µM) was under 31.6 nM. It also gave an IC50 (second compound 1 µM) of under 31.6 nM, an IC50 (second compound 3.16 µM) of under 31.6 nM and an IC50 (second compound 10 µM) of under 31.6 nM. It also gave a viability, T/C [1] of 74.3%, a viability, T/C [2] of 80% and a viability, T/C [3] of 76.1%. It also gave a viability, T/C [4] of 76.5%, a viability, T/C [5] of 76.5% and a viability, T/C [6] of 71.3%. It also gave a viability, T/C [7] of 34.9%, a viability, T/C [8] of 46.9% and a viability, T/C [9] of 42.7%. It also gave a viability, T/C [10] of 39.2%, a viability, T/C [11] of 36.6% and a viability, T/C [12] of 38.3%. It also gave a viability, T/C [13] of 43.6%, a viability, T/C [14] of 33% and a viability, T/C [15] of 41.9%. It also gave a viability, T/C [16] of 41.6%, a viability, T/C [17] of 37% and a viability, T/C [18] of 38.5%. It also gave a viability, T/C [19] of 34.6%, a viability, T/C [20] of 33.1% and a viability, T/C [21] of 45%. It also gave a viability, T/C [22] of 34.5%, a viability, T/C [23] of 32.6% and a viability, T/C [24] of 28.4%. The viability, T/C [25] was 31.1%, the viability, T/C [26] was 34.5% and the viability, T/C [27] was 34.9%. It also gave a viability, T/C [28] of 28.1%, a viability, T/C [29] of 29% and a viability, T/C [30] of 27.7%. For the same compound, the viability, T/C [31] was 27.8%, the viability, T/C [32] was 33.1% and the viability, T/C [33] was 29.2%. For the same compound, the viability, T/C [34] was 28.2%, the viability, T/C [35] was 40% and the viability, T/C [36] was 18.4%.
With `CCCS(=O)(=O)Nc1ccc(F)c(C(=O)c2c[nH]c3ncc(-c4ccc(Cl)cc4)cc23)c1F` + CNC(=O)c1ccc(Nc2nc(OC3CCCC3)c3c(-c4ccc5nc(C)oc5c4)c[nH]c3n2)c(OC)c1 the IC50 (second compound 0.0316 µM) was 8070 nM, the IC50 (second compound 0.1 µM) was under 31.6 nM and the IC50 (second compound 0.316 µM) was under 31.6 nM. For the same compound, the IC50 (second compound 1 µM) was under 31.6 nM, the IC50 (second compound 3.16 µM) was under 31.6 nM and the IC50 (second compound 10 µM) was under 31.6 nM. For the same compound, the viability, T/C [1] was 74.1%, the viability, T/C [2] was 81.7% and the viability, T/C [3] was 82.3%. The viability, T/C [4] was 91.5%, the viability, T/C [5] was 72.3% and the viability, T/C [6] was 44.9%. For the same compound, the viability, T/C [7] was 42%, the viability, T/C [8] was 39% and the viability, T/C [9] was 34.4%. For the same compound, the viability, T/C [10] was 41.1%, the viability, T/C [11] was 38% and the viability, T/C [12] was 17.4%. For the same compound, the viability, T/C [13] was 39.5%, the viability, T/C [14] was 30.1% and the viability, T/C [15] was 39%. It also gave a viability, T/C [16] of 38.6%, a viability, T/C [17] of 39.8% and a viability, T/C [18] of 22.2%. It also gave a viability, T/C [19] of 38.7%, a viability, T/C [20] of 35.2% and a viability, T/C [21] of 31%. For the same compound, the viability, T/C [22] was 31.6%, the viability, T/C [23] was 35.8% and the viability, T/C [24] was 19%. The viability, T/C [25] was 35%, the viability, T/C [26] was 36.7% and the viability, T/C [27] was 35.7%. The viability, T/C [28] was 32.3%, the viability, T/C [29] was 32.4% and the viability, T/C [30] was 18.2%. It also gave a viability, T/C [31] of 33.5%, a viability, T/C [32] of 27.9% and a viability, T/C [33] of 29.6%. It also gave a viability, T/C [34] of 39.1%, a viability, T/C [35] of 40.4% and a viability, T/C [36] of 13.2%.
Work on `COC1C=CCC(C)C(C)S(=O)(=O)NC(=O)c2ccc3c(c2)N(CC2CCC21)CC1(CCCc2cc(Cl)ccc21)CO3` (stereo not drawn) + CNC(=O)c1ccc(Nc2nc(OC3CCCC3)c3c(-c4ccc5nc(C)oc5c4)c[nH]c3n2)c(OC)c1 yielded an IC50 (second compound 0.0316 µM) of 5290 nM, an IC50 (second compound 0.1 µM) of under 31.6 nM and an IC50 (second compound 0.316 µM) of under 31.6 nM. It also gave an IC50 (second compound 1 µM) of under 31.6 nM, an IC50 (second compound 3.16 µM) of under 31.6 nM and an IC50 (second compound 10 µM) of under 31.6 nM. For the same compound, the viability, T/C [1] was 85.2%, the viability, T/C [2] was 82.8% and the viability, T/C [3] was 90.5%. It also gave a viability, T/C [4] of 90%, a viability, T/C [5] of 90% and a viability, T/C [6] of 3.4%. For the same compound, the viability, T/C [7] was 41.3%, the viability, T/C [8] was 35.1% and the viability, T/C [9] was 33.8%. It also gave a viability, T/C [10] of 29.2%, a viability, T/C [11] of 37% and a viability, T/C [12] of 3.05%. It also gave a viability, T/C [13] of 37.3%, a viability, T/C [14] of 39.6% and a viability, T/C [15] of 30.1%. It also gave a viability, T/C [16] of 20.1%, a viability, T/C [17] of 20.5% and a viability, T/C [18] of 2.22%. It also gave a viability, T/C [19] of 36.4%, a viability, T/C [20] of 36.4% and a viability, T/C [21] of 25.6%. For the same compound, the viability, T/C [22] was 20.1%, the viability, T/C [23] was 18.1% and the viability, T/C [24] was 2.26%. The viability, T/C [25] was 31.5%, the viability, T/C [26] was 33.8% and the viability, T/C [27] was 23.3%. It also gave a viability, T/C [28] of 18.4%, a viability, T/C [29] of 13% and a viability, T/C [30] of 1.56%. It also gave a viability, T/C [31] of 35.1%, a viability, T/C [32] of 42.5% and a viability, T/C [33] of 30.4%. For the same compound, the viability, T/C [34] was 21.6%, the viability, T/C [35] was 11.7% and the viability, T/C [36] was 1.66%.
